We go through two molecules from patent US8846912B2, “Tartrate salts of quinazoline based EGFR inhibitors containing a zinc binding moiety” (Curis, Inc., priority 2007, dated 2014).

For one series, the system named is A549 NSCLC Xenograft. In words: A549 NSCLC xenograft model. The class given is in vivo. The conditions noted are these: FIG. 11A, 11B.
Another series deals with Caki-1 Renal carcinoma. The series can be described thus: Cell proliferation assay (ATPlite). The class given is cell-based. The following applies: Homo sapiens; Caki-1, Renal carcinoma (Table D); read-out: IC50 in cancer cell line. How it is done:
(§1) Cell Proliferation Assay:
(§2) Cancer cell lines were plated at 5,000 to 10,000 per well in 96-well flatted bottomed plates with various concentration of compounds. […] Growth inhibition was accessed by adenosine triphosphate (ATP) content assay using Perkin Elmer ATPlite kit. ATPlite is an ATP monitoring system based on firefly luciferase. Briefly, 25 μl of mammalian cell lysis solution was added to 50 μl of phenol red-free culture medium per well to lyse the cells and stabilize the ATP. 25 μl of substrate solution was then added to the well and subsequently the luminescence was measured.

For series [1] the following is noted: both, Sprague Dawley, rat, in vivo, iv, 8 days.
Procedure: Single dosing MTD in rats • a. Sprague Dawley, male and female, 240-260 gram • b. Dosing at 0, 25, 50, 100, 200 mg/kg, iv infusion 5 min • c. 6 rats per group (3 male and 3 female)
(§7) Stock solution is diluted with 30% CAPTISOL® before use.
For series [2] the following is noted: male, CD-1, mouse, in vivo, ip, 7 days.
Procedure: 7-day-multiple dosing MTD in mice • a. CD-1 mice, male, 24-26 gram • b. Dosing at 0, 50, 100, 200 mg/kg/d ip • c. 6 mice per group • d. Blood and organs will be collected 2 hr after last dosing on Day 7 for hematology
as §7
A short description of series [3]: Stability of CAPTISOL solution at room temperature. The class given is physicochemical. The conditions noted are these: 25 mg/ml compound 12 with 8.6 mg tartaric acid in 30% CAPTISOL
The nature of series [4]: Pharmacokinetic study of compound 12 formulation in mice (iv, ip). The class given is in vivo. The following applies: hydrochloride salt.
For series [5] the following is noted: male, CD-1, mouse, in vivo, iv, 9 days.
Procedure: Single dosing MTD in mice • a. CD-1 mice, male, 24-26 gram • b. Dosing at 0, 50, 100, 200, 400 mg/kg, iv infusion 2 min • c. 8 mice per group
as §7
For series [6], the system named is HPAC pancreatic cancer cells. The series can be described thus: HPAC pancreatic cancer tumor model. The following applies: 120 mg/kg in 30% CAPTISOL (iv/ip) daily; FIG. 12A. The class given is in vivo.
Series [7] in a line: Pharmacokinetic study of compound 12 formulation in rats. The class given is in vivo. The following applies: hydrochloride salt in 30% CAPTISOL, 20 and 60 mg/kg iv, FIG. 14. How it is done: (§3) Compound was administered via an intravenous (iv) infusion.
Rat: 20 mg/kg for 5 min i.v. infusion
(§4) Plasma samples were prepared by protein precipitation. An internal standard was added into plasma samples. […] The supernatant was then injected onto LC/MS/MS.
(§5) Samples were compared to standards made in plasma. These standards were prepared by serial dilution.

Series [8] in a line: Pharmacokinetic study of compound 12 in dogs. The class given is in vivo. The conditions noted are these: 25 mg/kg tartrate salt in 30% CAPTISOL, FIG. 19. How it is done:
as §3
Beagle: 25 mg/kg for 30 min i.v. infusion
as §4, §5

In series [9] the target is T1, human EGFR(His672-Ala1210) (Homo sapiens, UniProt P00533).
T1 construct: a construct expressing human EGFR(His672-Ala1210); GST (N); purchased Cell Signaling Technologies; host or cells: baculovirus expression system
In words: EGFR kinase assay (HTScan EGF Receptor Kinase Assay Kit). The class given is biochemical. The following applies: FIG. 1. How it is done: The ability of compounds to inhibit receptor kinase (EGFR) activity was assayed using HTScan™ EGF Receptor Kinase Assay Kits (Cell Signaling Technologies, Danvers, Mass.). […] The protein was purified by one-step affinity chromatography using glutathione-agarose.
Immediately transfer enzyme from −80° C. to ice. Allowed enzyme to thaw on ice. […] Returned immediately to ice. […] Incubated reaction plate at room temperature for 30 minutes. […] Added 100 μl/well primary antibody. Incubated at room temperature for 60 minutes. […] Added 100 μl/well diluted antibody. Incubated at room temperature for 30 minutes. […] Incubated at room temperature for 5 minutes.

For series [10], the system named is colon and breast cancer cells (HCT-116, SKBr3). In words: Induction of apoptosis (Caspase 3&7 activity). The class given is cell-based. The following applies: HCT-116 and SKBr3, 24 hours; FIG. 4.
Series [11] concerns various cancer cell lines. In words: Cell proliferation assay, various cancer cell lines. The class given is cell-based. The following applies: Table D, FIG. 3. How it is done: as §1
Cancer cell lines were plated at 5,000 to 10,000 per well in 96-well flatted bottomed plates with various concentration of compounds. The cells were incubated with compounds for 72 hours in the presence of 0.5% of fetal bovine serum. Growth inhibition was accessed by adenosine triphosphate (ATP) content assay using Perkin Elmer ATPlite kit. ATPlite is an ATP monitoring system based on firefly luciferase. Briefly, 25 μl of mammalian cell lysis solution was added to 50 μl of phenol red-free culture medium per well to lyse the cells and stabilize the ATP. 25 μl of substrate solution was then added to the well and subsequently the luminescence was measured.

The test system of series [12] is EGFR in MDA-MB-468 breast cancer cell line. The series can be described thus: EGFR phosphorylation in cells. The class given is cell-based. The following applies: FIG. 2. From the text: (§6) FIG. 2 illustrates inhibition of HDAC and EGFR in MDA-MB-468 breast cancer cell line: (a) Ac-H4 Accumulation, (b) Ac-H3 Accumulation, (c) EGFR inhibition.
For series [13] the following is noted: both, Sprague Dawley, rat, in vivo, iv, 7 days.
Procedure: 4. 7-day multiple dosing MTD in rats • a. Sprague Dawley, male and female, 220-250 gram • b. Dose, 25, 50, 100, 200 mg/kg/d) iv infusion 5 min • c. 6 per group (3 male and 3 female) • d. Blood and organs will be collected 2 hr after last dosing on Day 7 for hematology Compound Preparation.
as §7
Series [14] has as its system HDAC in MDA-MB-468 breast cancer cell line. The series can be described thus: Histone acetylation (Ac-H4, Ac-H3 accumulation) in cells. The class given is cell-based. The conditions noted are these: FIG. 2.
Excerpt: as §6

Series [15] is described as follows: Dilution study with D5W (precipitation, chemical stability). The class given is physicochemical. The conditions noted are these: 60 mg/ml compound 12 with tartaric acid (1.3 eq) in 30% CAPTISOL, diluted in 1x water and 2x D5W.
Another series deals with Colon_HCT116. In words: Cell proliferation assay (ATPlite). The class given is cell-based. The conditions noted are these: Homo sapiens, HCT-116; HCT116, Colon cancer (Table D); read-out: IC50 in cancer cell line. As to the method:
as §1, §2

Series [16] deals with MDA-MB-231 Breast adenocarcinoma. The series can be described thus: Cell proliferation assay (ATPlite). The class given is cell-based. The conditions noted are these: Homo sapiens; MDA-MB-231, Breast adenocarcinoma (Table D); read-out: IC50 in cancer cell line. As to the method: as §1, §2
A further series has as its system Prostate_PC3. In words: Cell proliferation assay (ATPlite). The class given is cell-based. The following applies: PC-3, Prostate adenocarcinoma (Table D); read-out: IC50 in cancer cell line. As to the method: as §1, §2
The subject of the next series is Breast_MCF7. The series can be described thus: Cell proliferation assay (ATPlite). The class given is cell-based. The following applies: Homo sapiens, MCF7; MCF-7, Breast adenocarcinoma (Table D); read-out: IC50 in cancer cell line. How it is done:
as §1, §2

For the next series, the system named is Breast_SkBr3. The series can be described thus: Cell proliferation assay (ATPlite). The conditions noted are these: Homo sapiens, SK-BR-3; SKBr3, Breast carcinoma (Table D); read-out: IC50 in cancer cell line. The class given is cell-based. How it is done: as §1, §2

pIC50: −log10 of the molar value. Like-named read-outs stand apart in the source and are kept apart here.

T1 sequence (P00533 672-1210): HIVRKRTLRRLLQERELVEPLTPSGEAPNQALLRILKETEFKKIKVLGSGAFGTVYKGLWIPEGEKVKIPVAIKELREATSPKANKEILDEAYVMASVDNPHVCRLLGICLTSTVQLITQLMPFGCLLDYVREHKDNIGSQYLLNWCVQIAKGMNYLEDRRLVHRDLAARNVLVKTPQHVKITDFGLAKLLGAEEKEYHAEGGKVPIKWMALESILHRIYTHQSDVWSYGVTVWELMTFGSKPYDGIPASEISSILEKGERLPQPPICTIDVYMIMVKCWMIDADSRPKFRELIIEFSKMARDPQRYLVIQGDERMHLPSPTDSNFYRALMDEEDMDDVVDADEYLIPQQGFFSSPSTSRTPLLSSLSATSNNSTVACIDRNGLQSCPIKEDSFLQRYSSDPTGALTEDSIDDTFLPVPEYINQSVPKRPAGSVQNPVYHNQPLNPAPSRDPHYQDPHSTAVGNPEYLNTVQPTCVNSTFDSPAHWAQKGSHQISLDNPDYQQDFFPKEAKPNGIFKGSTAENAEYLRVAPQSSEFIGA

`C#Cc1cccc(Nc2ncnc3cc(OC)c(OCCCCCCC(=O)NO)cc23)c1` [Compound 12, 7-(4-(3-ethynylphenylamino)-7-methoxyquinazolin-6-yloxy)-N-hydroxyheptanamide]: in the series on A549 NSCLC Xenograft, the “effect on tumor growth / tumor size” value was “attenuated tumor growth”. For the same molecule, in the series on Caki-1 Renal carcinoma, the pIC50 was at least 7.30. Also, the “dose without significant change in body weight” value in [1] was “up to 200 mg/kg”; in series [2], “up to 100 mg/kg”; in series [5] it was “up to 200 mg/kg”. Moreover, the stability of solution result in series [3] was “stable at room temperature”. Moreover, the “dose proportionality of concentration” value in [4] (20 and 60 mg/kg, iv and ip) is “dose proportional when administered intravenously but not intraperitoneally”. Also, in series [4] (lung, colon, plasma), the “half-life in tissue versus plasma” value is “greater than that in plasma”. In series [6], the “attenuation of tumor growth” value is “greater attenuation of tumor growth than either erlotinib (po) or vehicle”. Also, the “dose proportionality of plasma concentration” value in [7] is reported as “proportional to the dose”. The “concentration in plasma in 4 hours” value in series [8] was “less than 10 mg/ml”. Further, the “activity in EGFR enzyme assay compared with erlotinib” value in series [9] is “more active than erlotinib and SAHA”. Moreover, in [10], the “cell apoptosis measured by increased Caspase 3&7 activity” value is listed as 4-11 times. The “anti-proliferative activity compared with Erlotinib, SAHA and their combination” value in [11] was “more active than Erlotinib and SAHA”. Moreover, the “inhibition of EGFR phosphorylation compared with Erlotinib” value in series [12] is “improvement in inhibition of histone acetylation and EGFR phosphorylation”. Further, the “dose without significant change in body weight or food consumption” value in series [13] is given as “up to 100 mg/kg”. Further, in series [14], the “inhibition of histone acetylation compared with SAHA” value is recorded as “improvement in inhibition of histone acetylation”. The “stability of diluted solution at room temperature” value in series [15] is reported as over 12 h.
`C#Cc1cccc(Nc2ncnc3cc(OCCOC)c(OCCOC)cc23)c1` [Erlotinib]: the “effect on tumor growth / tumor size” value in the series on A549 NSCLC Xenograft was “did not significantly affect tumor size as compared to control”. In addition, the pIC50 (with Colon_HCT116; in [16]; in the series on Prostate_PC3; in the series with Breast_MCF7; with Breast_SkBr3) was at least 5.30 throughout.
